Assay results from ChEMBL document CHEMBL3102724, “Isolation of antiplasmodial anthraquinones from Kniphofia ensifolia, and synthesis and structure-activity relationships of related compounds” (Bioorg Med Chem, 2014).

How the values were obtained:
Plasmodium falciparum = experiment: Antiplasmodial activity against chloroquine-resistant ring stage Plasmodium falciparum Dd2 after 72 hrs by SYBR Green 1-based fluorescence assay; assay type: functional, organism-based; details: Dd2, 72 h
A2780 = experiment: Cytotoxicity against human A2780 cells; assay type: cell-based

Row | SMILES | IC50 (Plasmodium falciparum) | IC50 (A2780)
1 | Cc1cc(O)c2c(c1)C(=O)c1ccc(C3(O)c4cccc(O)c4C(=O)c4c(O)cc(C)cc43)c(O)c1C2=O (configuration not stated) | 0.4 µM | 6 µM
2 | Cc1cc(O)c2c(c1)C(O)(c1ccc3c(c1O)C(=O)c1c(O)cc(C)c(O)c1C3=O)c1cccc(O)c1C2=O (configuration not stated) | 0.2 µM | 4 µM
3 | Cc1cc(O)c2c(c1)C(=O)c1ccc(-c3c(C)cc(O)c4c3C(=O)c3cccc(O)c3C4=O)c(O)c1C2=O | 10 µM | > 60 µM
4 | Cc1cc(O)cc2c1C(=O)c1cc(-c3c(C)cc4c(c3O)C(=O)c3c(O)cccc3C4=O)cc(O)c1C2=O | 10 µM | > 60 µM
5 | CC(=O)OCc1cc(O)c2c(c1)C(=O)c1cccc(O)c1C2=O | 42 µM | –
6 | O=C(OCc1cc(O)c2c(c1)C(=O)c1cccc(O)c1C2=O)c1ccccc1 | 31 µM | –
7 | C/C=C/C(=O)OCc1cc(O)c2c(c1)C(=O)c1cccc(O)c1C2=O | 45 µM | –
8 | O=C(CCc1ccccc1)OCc1cc(O)c2c(c1)C(=O)c1cccc(O)c1C2=O | 36 µM | –
9 | O=C(/C=C/c1ccccc1)OCc1cc(O)c2c(c1)C(=O)c1cccc(O)c1C2=O | 18 µM | –
10 | COc1ccc(C(=O)OCc2cc(O)c3c(c2)C(=O)c2cccc(O)c2C3=O)cc1 | 22 µM | –
11 | COc1ccc(/C=C/C(=O)OCc2cc(O)c3c(c2)C(=O)c2cccc(O)c2C3=O)cc1 | 5 µM | –
12 | CC(=O)Oc1ccc(/C=C/C(=O)OCc2cc(O)c3c(c2)C(=O)c2cccc(O)c2C3=O)cc1 | 12 µM | –
13 | CC(=O)Oc1ccc(C(=O)OCc2cc(O)c3c(c2)C(=O)c2cccc(O)c2C3=O)cc1 | 30 µM | –
14 | COc1ccc(C(=O)OCc2cc(O)c3c(c2)C(=O)c2cccc(O)c2C3=O)cc1OC | 14 µM | –
15 | COc1cc(C(=O)OCc2cc(O)c3c(c2)C(=O)c2cccc(O)c2C3=O)cc(OC)c1OC | 16 µM | –
16 | COc1ccc(/C=C/C(=O)OCc2cc(O)c3c(c2)C(=O)c2cccc(O)c2C3=O)cc1OC | 1.3 µM | –
17 | COc1cc(/C=C/C(=O)OCc2cc(O)c3c(c2)C(=O)c2cccc(O)c2C3=O)cc(OC)c1OC | 2.7 µM | –
18 | COc1cc(/C=C/C(=O)OCc2cc(O)c3c(c2)C(=O)c2cccc(O)c2C3=O)cc(OC)c1 | 2.5 µM | –
19 | COc1ccc(/C=C/C(=O)OCc2cc(O)c3c(c2)C(=O)c2cccc(O)c2C3=O)c(OC)c1 | 6 µM | –
20 | COc1cccc(/C=C/C(=O)OCc2cc(O)c3c(c2)C(=O)c2cccc(O)c2C3=O)c1OC | 8 µM | –
21 | COc1ccc(OC)c(/C=C/C(=O)OCc2cc(O)c3c(c2)C(=O)c2cccc(O)c2C3=O)c1 | 9 µM | –
22 | O=C(/C=C/c1ccc2c(c1)OCO2)OCc1cc(O)c2c(c1)C(=O)c1cccc(O)c1C2=O | 1.9 µM | –
23 | O=C(OCc1cc(O)c2c(c1)C(=O)c1cccc(O)c1C2=O)c1ccc(O)cc1 | 26 µM | > 60 µM
24 | O=C(/C=C/c1ccc(O)cc1)OCc1cc(O)c2c(c1)C(=O)c1cccc(O)c1C2=O | 9 µM | > 60 µM
25 | O=C1c2cccc(O)c2C(=O)c2c(O)cc(CO)cc21 [ALOE-EMODIN] | 55 µM | 26 µM
26 | C[C@@H]1CC[C@H]2[C@@H](C)C(=O)O[C@@H]3O[C@@]4(C)CC[C@@H]1[C@]32OO4 [ARTEMISININ] | 0.007 µM | –
27 | Cc1cc(O)c2c(c1)C(=O)c1cccc(O)c1C2=O [CHRYSOPHANOL] | 58 µM | > 60 µM
28 | COc1cc(O)c(-c2c(C)cc(O)c3c2C(=O)c2cccc(O)c2C3=O)c(O)c1C(C)=O [KNIPHOLONE] | 1.1 µM | 8 µM
